# Source: patent publication US9586948B2, “Inhibitors of IRAK4 activity” (MERCK SHARP & DOHME CORP., priority 2012, dated 2017)
# Target: GST tagged IRAK4 (Homo sapiens (Human), UniProt Q9NWZ3)
# Assay: Determination of IRAK4 kinase activity (IMAP fluorescence polarization)
# Type: biochemical
# Conditions: 0.5 nM GST tagged IRAK4, 100 nM fluorescent peptide substrate RP7030, 100 μM ATP, 30 minutes at 25° C.
# Protocol: The kinase activity of IRAK4 is determined by its ability to catalyze the phosphorylation of a fluorescent polypeptide substrate. The extent of phosphorylation is measured using IMAP technology (Molecular Devices) where the phosphorylated fluorescent substrate binds to the large M(III)-based nanoparticles which reduces the rotational speed of the substrate and thus increases its fluorescent polarization (FP).
# Procedure: A 20 μl reaction mixture contains 10 mM TriHCl, pH 7.2, 0.5 nM GST tagged IRAK4 (SignalChem), 100 nM fluorescent peptide substrate (RP7030, Molecular Devices), 100 μM ATP, 1 mM DTT, 1 mM MgCl2, and 0.01% Tween 20. The reaction is initiated by the addition of ATP. After incubation for 30 minutes at 25° C., 60 μl of Progressive IMAP Reagent (Molecular Devices) is added to stop the reaction. Change in RP7030's FP is determined by a FP reader (Analyst HT, LJL BioSystems).
# Sequence of GST tagged IRAK4 (Q9NWZ3 whole entry): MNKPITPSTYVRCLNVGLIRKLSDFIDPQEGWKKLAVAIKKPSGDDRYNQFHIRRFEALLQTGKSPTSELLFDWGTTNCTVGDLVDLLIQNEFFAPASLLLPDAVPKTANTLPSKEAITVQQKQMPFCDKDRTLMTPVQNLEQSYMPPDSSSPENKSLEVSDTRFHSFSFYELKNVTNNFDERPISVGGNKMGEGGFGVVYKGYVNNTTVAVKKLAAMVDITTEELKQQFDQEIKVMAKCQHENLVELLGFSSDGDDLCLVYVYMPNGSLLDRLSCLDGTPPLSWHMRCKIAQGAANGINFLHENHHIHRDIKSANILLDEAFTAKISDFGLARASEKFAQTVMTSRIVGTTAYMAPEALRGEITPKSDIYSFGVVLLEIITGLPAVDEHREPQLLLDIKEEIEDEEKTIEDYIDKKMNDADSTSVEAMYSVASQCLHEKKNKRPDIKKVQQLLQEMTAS
row,Structure (SMILES),IC50 [µM]
1,"Cn1cc(NC(=O)c2cccc(-c3ccnc(NCC4CC4)c3)n2)c(C(=O)NCC2CCS(=O)(=O)C2)n1 (stereo not drawn) [Example 45, 2′-((cyclopropylmethyl)amino)-N-(3-(((1,1-dioxidotetrahydrothiophen-3-yl)methyl)carbamoyl)-1-methyl-1H-pyrazol-4-yl)-[2,4′-bipyridine]-6-carboxamide]",3.62
2,"CN1CCN(C(=O)c2nn(C)cc2NC(=O)c2cccc(-c3ccnc(NCC4CC4)c3)n2)CC1 [Example 39, 2′-((cyclopropylmethyl)amino)-N-(1-methyl-3-(4-methylpiperazine-1-carbonyl)-1H-pyrazol-4-yl)-[2,4′-bipyridine]-6-carboxamide]",2.91
3,"Cn1cc(NC(=O)c2cccc(C3=CCS(=O)(=O)CC3)n2)c(C(N)=O)n1 [Example 26, N-(3-carbamoyl-1-methyl-1H-pyrazol-4-yl)-6-(1,1-dioxido-3,6-dihydro-2H-thiopyran-4-yl)picolinamide]",1.3
4,"CN(C)[C@H]1CN(C(=O)c2nn(C)cc2NC(=O)c2cccc(-c3ccnc(NCC4CC4)c3)n2)C[C@@H]1O [Example 46, 2′-((cyclopropylmethyl)amino)-N-(3-((3S,4S)-3-(dimethylamino)-4-hydroxypyrrolidine-1-carbonyl)-1-methyl-1H-pyrazol-4-yl)-[2,4′-bipyridine]-6-carboxamide]",0.186
5,"Cn1ncc(NC(=O)c2cccc(-c3ccnc(NCC4CC4)c3)n2)c1C(N)=O [Example 8, N-(5-carbamoyl-1-methyl-1H-pyrazol-4-yl)-2′-(cyclopropylmethylamino)-2,4′-bipyridine-6-carboxamide]",2.73
6,"CN(C)CCCCCNC(=O)c1nn(C)cc1NC(=O)c1cccc(-c2ccnc(NCC3CC3)c2)n1 [Example 37, 2′-((cyclopropylmethyl)amino)-N-(3-((5-(dimethylamino)pentyl)carbamoyl)-1-methyl-1H-pyrazol-4-yl)-[2,4′-bipyridine]-6-carboxamide]",2.19
7,"Cn1cc(NC(=O)c2cccc(-n3cccc3)n2)c(C(N)=O)n1 [Example 2, N-(3-carbamoyl-1-methyl-1H-pyrazol-4-yl)-6-(1H-pyrrol-1-yl)picolinamide]",0.649
8,"Cn1cc(NC(=O)c2cccc(-c3ccnc(NCC4CC4)c3)n2)c(C(N)=O)n1 [Example 1, N-(3-carbamoyl-1-methyl-1H-pyrazol-4-yl)-2′-((cyclopropylmethyl)amino)-[2,4′-bipyridine]-6-carboxamide]",0.074
9,"Cn1cc(NC(=O)c2cccc(-c3ccnc(NCC4CC4)c3)n2)c(C(=O)NCCN2CCCC2)n1 [Example 35, 2′-((cyclopropylmethyl)amino)-N-(1-methyl-3-((2-(pyrrolidin-1-yl)ethyl)carbamoyl)-1H-pyrazol-4-yl)-[2,4′-bipyridine]-6-carboxamide]",1.06
10,"Cn1cc(NC(=O)c2cccc(-c3ccnc(NCC4CC4)c3)n2)c(C(=O)Nc2cncnc2)n1 [Example 43, 2′-((cyclopropylmethyl)amino)-N-(1-methyl-3-(pyrimidin-5-ylcarbamoyl)-1H-pyrazol-4-yl)-[2,4′-bipyridine]-6-carboxamide]",1.58

# The remaining lines, values ahead:
row,IC50 [µM],Structure (SMILES)
1,0.637,"COc1cccc(-c2cccc(C(=O)Nc3cn(C)nc3C(N)=O)n2)c1 [Example 13, N-(3-carbamoyl-1-methyl-1H-pyrazol-4-yl)-6-(3-methoxyphenyl)picolinamide]"
2,1.9,"Cn1cc(NC(=O)c2cccc(-c3ccncc3)n2)c(C(N)=O)n1 [Example 11, N-(3-carbamoyl-1-methyl-1H-pyrazol-4-yl)-2,4′-bipyridine-6-carboxamide]"
3,0.101,"Cn1cc(NC(=O)c2cccc(-c3ccnc(N)c3)n2)c(C(N)=O)n1 [Example 6, 2′-amino-N-(3-carbamoyl-1-methyl-1H-pyrazol-4-yl)-[2,4′-bipyridine]-6-carboxamide]"
4,0.032,"Cn1cc(-c2cccc(C(=O)Nc3cn(C)nc3C(N)=O)n2)cn1 [Example 25, N-(3-carbamoyl-1-methyl-1H-pyrazol-4-yl)-6-(1-methyl-1H-pyrazol-4-yl)picolinamide]"
5,2.26,"Cn1cc(NC(=O)c2cccc(-c3cccc(OC(F)(F)F)c3)n2)c(C(N)=O)n1 [Example 21, N-(3-carbamoyl-1-methyl-1H-pyrazol-4-yl)-6-(3-(trifluoromethoxy)phenyl)picolinamide]"
